Data: patent publication US20200249194A9, “PROSTATE PROTEASE NANOSENSORS AND USES THEREOF” (Massachusetts Institute of Technology, priority 2017, published 2020)
Entries after “also recorded” stand apart in the source; their conditions may differ. Non-standard residues stand in square brackets, D forms with d. Primed or numbered codes have the meaning given here. No end group written: not given here. *: point of attachment. 5FAM = O=C1OC2(c3ccc(O)cc3Oc3cc(O)ccc32)c2ccc(C(=O)*)cc21; Biotin = O=C1N[C@H]2[C@H](CS[C@H]2CCCCC(=O)*)N1; CPQ2 = quencher paired with 5FAM as FRET pair; PEG2′ = not defined here; PEG = not defined here; QSY21 = QSY21 quencher; Cy5 = Cy5 fluorophore

Columns and labels:
[1] = test system: tumor protease activity; test: In vivo protease activity imaging study; parameters: species or system mice; conditions: red-shifted FRET pair
[2] = test system: 15 selected proteases (MPs and SPs); Thrombin, Factor Xa and human plasma as negative filters; test: Cleavage of FRET-paired peptide substrates (free and PEG-coupled) by recombinant proteases; type: biochemical
Excerpt: With an identified set of MPs and SPs, a panel of substrates was developed to measure their activity. A panel of 58 FRET-paired peptide substrates (labeled T1-58-Q, where Q denotes quenched Table 6) was screened for cleavage by the 15 selected proteases. To account for background cleavage in circulation, Thrombin, Factor Xa, and human plasma were included as negative filters. The library comprised peptides with diverse physiochemical properties to provide broad coverage, and kinetic parameters of cleavage of the FRET-paired substrates by recombinant proteases were measured and z-score normalized by protease. Substrates were grouped by hierarchical clustering to remove substrates with overlapping cleavage patterns, as they would not provide any orthogonal insight, resulting in a down-selected panel of 26 substrates.
For use in vivo, the peptides may be conjugated to a nanoparticle having robust accumulation in the prostate abilities. Thus, a biodistribution study was performed with three fluorophore-labeled carrier candidates and tested for their biodistribution following i.v. injection. […] Thus, the peptide substrates were conjugated to a PEG core and their cleavage profile was tested. […] Further mechanistic understanding of this variability may improve the development of ABN technology by identifying optimal surface presentation. […] Some substrates were cleaved specifically by a single protease on the biomarker list, whereas others were cleaved by multiple or all members of the enzyme family tested (Table 7).

[3] = test system: PC3 cell line supernatant; test: Cleavage of 19-plex fluorogenic ABNs in PC3 supernatant; type: cell-based, human; conditions: for overall cleavage activity in the presence of inhibitor: PC3 supernatant, 19-plex fluorogenic ABNs; for cleavage by PC3 supernatant compared with 22Rv1: in vitro, fluorogenic
[4] = test system: serine hydrolase; parameters: species or system human
[5] = test system: 22Rv1 cell line supernatant; test: Cleavage of 19-plex fluorogenic ABNs in 22Rv1 supernatant; type: cell-based, human
[6] = test system: PC3 xenografts; test: Urinary reporter signal of ABNs in PC3 xenograft-bearing mice; type: in vivo; conditions: for relative urine signal, PC3 compared with 22Rv1: 19-plex, mass-encoded reporters, xenografts ~100 mm3; for classification of PC3-bearing from 22Rv1-bearing mice: ROC curve analysis
Protocol: Having achieved this proof-of-concept urine monitoring of protease activity with a single substrate, the entire ABN library was tested in vivo with an emphasis on identifying reporters to differentiate mice bearing more aggressive (PC3) versus less aggressive (22Rv1) xenografts. To quantify cleavage of the entire library in urine, the substrates were barcoded using a next generation of mass-encoded reporters built upon the isobar coded reporters method (Kwong et al., Nat Biotechnol 31:63-70 (2013)). This […] sensor library enables increased multiplexing by uniquely labeling each peptide with stable 13C and 15N atoms, allowing for quantitation of reporter barcodes across a large dynamic range using liquid chromatography-tandem mass spectrometry (Table 8). To account for variability in glomerular filtration rate, urine volume, and hydration state, a free reporter (not coupled to PEG) was co-injected. The 19-plex ABN library was serially injected i.v. to PC3 tumor-bearing mice over the course of tumor development. […] Next, the ability of the 19-plex library to classify PC3 from 22Rv1 tumor-bearing mice was sought to be determined. Using the mass-encoded reporters to examine the cleavage of each individual sensor, an early time point was focused on and it was observed that several substrates were differentially cleaved between animals bearing similarly sized xenografts ( 100 mm3) from the more (PC3) versus less aggressive (22Rv1) cell lines. Overall, the cleavage profile differences between the two cohorts agree with each cell line's protease expression patterns and the substrate specificity of each protease. […] To simplify urinalysis, these ABNs were designed to release biotinylated urinary reporters to enable ELISA-based readouts. […] Additionally, PSA measurements in mice may overestimate its sensitivity, as there is no mouse homolog of PSA (Lundwall et al., Biol Chem 387:243-249 (2006)). It was next tested whether the three-plex iRGD-ABNs could classify distinct prostate cancer tumors. […] Based on ROC curve analysis, the […] ABNs classified the mice bearing the more aggressive PC3-derived tumors as distinct from 22Rv1-bearing mice. […] Differential expression analysis was performed on TCGA data using […]. Survival analysis was performed using cBioPortal. SOMAscan was performed at the Beth Israel Deaconess Medical Center (BIDMC) Genomics Proteomics Core. […] Sigma) at 1 μM in PBS. • Animal Models. All animal studies were approved by Massachusetts Institute of Technology's Committee on Animal Care (CAC) (Protocol 0417-025-20). Four- to six-week-old male NCr nude mice (Taconic) were injected bilaterally with 3.5×10^6 PCa cells per flank in a 1:1 ratio of complete media and Matrigel (354234; Corning). Baseline urine measurement was obtained before xenograft implantation. Histology sectioning and staining was performed at KI Histology Core.

[7] = test system: MMP13, uPA, KLK, MMP; test: Substrate cleavage assay of protease nanosensors (FIG. 12A); type: biochemical
Protocol: Xenograft model 22Rv1 (a non-metastatic tumor, referred to as Tnon-met) is derived from a primary tumor. […] PC3 (a metastatic tumor, referred to as Tmet) is undifferentiated, AR^−, PSA^−, and metastasizes to lymph node (LN), lung, and bone. Multiplexed sensors were selected to classify Tmet from Tnon-met (FIGS. 7A-7F). A substrate cleavage assay was performed (FIG. 12A) with several protease nanosensors (FIGS. 9A-9B and FIGS. 12A-12B).

[8] = test system: 22Rv1 xenograft tumor homogenates; test: Protease activity of tumor homogenates ex vivo; type: biochemical, mice
[9] = test system: 22Rv1 xenografts; test: Urinary reporter signal of ABNs in 22Rv1 xenograft-bearing mice; type: in vivo
[10] = test system: MMP activity; test: FRET peptide substrate-cleavage assay in prostate tumor and NAT tissue samples; type: biochemical; conditions: human prostate tumor and matched NAT
Protocol: An assay was developed to measure protease activity in tissue samples. The mouse samples were excised, frozen in LN2, homogenized in PBS at 200 mgs/mL, and incubated with Q7 (FIG. 14A). In situ tissue zymography assays were additionally developed for frozen sections. Five sets of clinical human samples (both tumor and normal adjacent) were examined (FIG. 14B). The remaining fraction was tested on FRET substrates. Human sample cleavage was analyzed with substrate cleavage assays (Table 3). It was observed that many substrates are differentially cleaved in cancer tissue versus normal adjacent tissue.
As MP ABPs are less robust than serine ABPs, a FRET peptide substrate-cleavage assay was used to assay for MMP activity in the same tissue set evaluated by SOMAscan. Given the minimal tissue material available, each sample was evaluated with only a subset of substrates in duplicate. Multiple substrates were cleaved to a greater extent in tumor samples.

[11] = PEG-coupled quenched substrate, protease that cleaves it

## (QSY21)-GGPLGVRGKK(Cy5)-(PEG2)-C (QSY21-GGPLGVRGKK(Cy5)[PEG2′]C) [red-shifted FRET paired T7 substrate]
[1]
  fluorescence signal, tumor compared with liver: greater fluorescence signal in the tumor compared with the liver

## PEG-T7-Q: quenched FRET peptide substrate T7 conjugated to PEG core (5FAM-GGPLGVRGKK(CPQ2)[PEG2′]C; also: conjugated to PEG core, attachment not given here)
[2]; [11]
  Second hit: MMP26
  Top hit: MMP9

## NCCc1ccc(S(=O)(=O)F)cc1 [AEBSF]
[3]
  overall cleavage activity in the presence of inhibitor: reduced
[4]
  effect of inhibitor on FP-TAMRA labeling: mitigated
[5]
  overall cleavage activity in the presence of inhibitor: reduced

## T24: MMP13 peptide substrate (GGLGPKGQTG) of ABN library, reporter R3_06 (also: reporter R3_06 attached) [Substrate T24]
[3]
  cleavage by PC3 supernatant compared with 22Rv1: cleaved differentially
[2]
  protease that cleaves the substrate in vitro: MMP13
[6]
  relative urine signal, PC3 compared with 22Rv1: higher relative urine signal change; also recorded: elevated
[6]; three-plex iRGD-ABNs
  cleavage (individual reporter readout), PC3 relative to 22Rv1: significantly greater cleavage
  classification of PC3-bearing from 22Rv1-bearing mice: classified

## PB2: protease nanosensor, uPA substrate, SEQ ID NO: 8 (Biotin-EGVNDNEEGFFSARKGGGSGRSANAKGC(PEG); reading uncertain; also: FAM label at residues 15-16, exact place not given here)
[7]
  substrate specificity of nanosensor: uPA substrate

## PEG-T39-Q: quenched FRET peptide substrate T39 conjugated to PEG core (5FAM-GGGSGRSANAKGK(CPQ2)[PEG2′]GC; also: conjugated to PEG core, attachment not given here)
[2]; [11]
  Top hit: uPA

## CNC(=O)[C@@H](NC(=O)[C@H](CC(C)C)[C@H](O)C(=O)NO)C(C)(C)C [marimastat]
[3]
  overall cleavage activity in the presence of inhibitor: reduced
[8]
  T7 sensor cleavage in the presence of inhibitor: diminished
[5]
  overall cleavage activity in the presence of inhibitor: reduced

## PB13: protease nanosensor, broadly cleaved KLK substrate, SEQ ID NO: 9 (Biotin-EGVNDNEEGFFSARKGSGSKIIGGGC(PEG); reading uncertain; also: TAMRA at positions 15-16)
[7]
  substrate specificity of nanosensor: broadly cleaved KLK substrate

## T39: uPA peptide substrate (GGGSGRSANAKG) of ABN library, reporter R3_09 (also: reporter R3_09 attached) [Substrate T39]
[3]
  cleavage by PC3 supernatant compared with 22Rv1: cleaved differentially
[2]
  protease that cleaves the substrate in vitro: uPA
[6]
  relative urine signal, PC3 compared with 22Rv1: higher relative urine signal change; also recorded: elevated
[6]; three-plex iRGD-ABNs
  cleavage (individual reporter readout), PC3 relative to 22Rv1: significantly greater cleavage
  classification of PC3-bearing from 22Rv1-bearing mice: classified

## PEG-T24-Q: quenched FRET peptide substrate T24 conjugated to PEG core (5FAM-GGLGPKGQTGK(CPQ2)[PEG2′]C; also: conjugated to PEG core, attachment not given here)
[2]; [11]
  Top hit: MMP13

## T7: MMP-sensing peptide substrate (GPLGVRGK) of ABN library, reporter R3_04 (also: reporter R3_04 attached) [Substrate T7]
[6]; 19-plex library, PC3 mice
  urine signal: gave rise to urine signals
[6]; three-plex iRGD-ABNs
  classification of PC3-bearing from 22Rv1-bearing mice: did not classify between the two cohorts
[6]; three-plex iRGD-ABNs, individual reporter, PC3-bearing
  urine signal relative to control animals: elevated relative to control animals
[9]; 19-plex library, 22Rv1 mice
  urine signal: gave rise to urine signals
[9]; single sensor, biotinylated reporter, 22Rv1 xenograft-bearing mice
  urinary signal: increased urinary signal
[9]; three-plex iRGD-ABNs, individual reporter, 22Rv1-bearing
  urine signal relative to control animals: elevated relative to control animals
[10]
  cleavage signal, tumor vs NAT samples: signal was elevated across the majority of tumor samples
